Experimental data reported in patent publication US7314620B2, “Methods for diagnosis and treatment of PH domain signal transduction disorders” (New York University, priority 1995, dated 2008).
“And” between values parts separate entries of the source, which are not always exact repeats. Identical values can stand only once. “Also recorded” adds a separate entry of the source. Like-named read-outs stand apart in the source and are kept apart here. One block for each compound: values may come before it.

Columns and labels:
[1] = molecular target: T1, PLCδ-PH (Rattus norvegicus, UniProt P10688); assay: Spin-column competition assay for 3H-I(145)P3 binding to PLCδ-PH; details: for competition for I(145)P3 binding by lipid vesicles: lipid at 5% in DMPC vesicles or pure DMPC, assuming 50% of lipid on the surface
T1 construct: initiator methionine (N); made in house; host or cells: Escherichia coli (pET11a, T7 system)
T1 sequence (P10688 20-136): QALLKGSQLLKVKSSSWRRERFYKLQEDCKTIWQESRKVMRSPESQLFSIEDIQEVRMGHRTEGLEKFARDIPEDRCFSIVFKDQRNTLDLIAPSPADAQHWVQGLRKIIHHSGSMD
Experimental: A spin-column based competition assay was employed to determine relative affinities of other inositol polyphosphates for PLCδ-PH. […] The sample (40 μl) was then applied to a Biogel P6 gel filtration spin-column. […] Each curve represents the mean of two or more experiments.
The sample was then applied to a pre-spun 1 ml spin-column containing Biogel P6 desalting medium. The spin-column was then centrifuged for 4 minutes at 900 g. Essentially all of the protein was determined to pass through the column under these conditions, and no significant counts were seen to pass through the column in the absence of protein. After spinning, all of the material that passed through the column was added to scintillation fluid for counting. Counts were normalized to those obtained in the absence of competitor, and plotted as fraction of maximal binding. […]
Values for which a precise number is given represent the mean of at least two experiments.

[2] = molecular target: T2, PLCδ-PH (PH domain of rat PLC-δ1) (Rattus norvegicus, UniProt P10688); assay: Isothermal titration calorimetry of inositol polyphosphate / PIP2 vesicle binding to PLCδ-PH
T2 construct: initiator methionine (N); made in house; host or cells: Escherichia coli (pET11a, T7 system)
T2 sequence (P10688 20-136): T1 sequence (P10688 20-136)
Experimental: The resulting titration curve was fit using Omega software (Wiseman et al., 1989).
All experiments utilized the OMEGA instrument from MicroCal (Wiseman, T. et al., Anal. Biochem. 179, 131-137, 1989), in the laboratory of Prof. Julian Sturtevant at Yale. Titrations were performed at 25° C. in 50 mM MOPS, 100 mM NaCl, pH 6.8 or 100 mM NH4OAc at pH 6.8. […] For each titration, PH domain solution was dialyzed exhaustively against the buffer used for dilution of highly concentrated stocks of ligand. Heats for dilution of the ligand solutions were determined in separate titrations of ligand into buffer solution present in the cell.
Higher concentrations were employed for weaker binding events. […] Stoichiometry, binding constant (Kβ) and ΔH were all allowed to float in the fitting procedure.
A titration curve such as that to an equation describing a simple-binding reaction (Wiseman, T. et al., Anal. Biochem. 179, 131-137, 1989). From this fit, values for the binding constant, stoichiometry and ΔH for the binding reaction are ascertained. […] Ferris, C. D. et al, Nature, 342, 87-89, 1989.

[3] = tested on: any PH domain (PLCδ-PH, Dyn-PH, PlecN-PH); assay: Centrifugation-based assay of PH domain binding to lipid vesicles; details: lipid at 5% in DMPC vesicles
Experimental: Attempts to detect PH domain association with lipid vesicles were performed exactly as described by Harlan, J. E. et al., Nature 371, 168-170, 1994. In addition to using the BCA protein assay reagent, for which lipid blanks were rather high compared with the values expected for the protein concentrations employed, we also measured OD278 of the supernatants after addition of SDS in order to detect removal of protein upon pelleting vesicles. […] Initially, we performed a centrifugation-based assay, using the conditions described by Harlan, J. E. et al., Nature 371, 168-170, 1994. […] Similarly, we were unable to detect association of any of the PH domains with the same vesicles by using size-exclusion chromatography to separate protein and lipid. Any complexes between the PH domains and these vesicles therefore form with low affinity and/or have fast dissociation kinetics, such that they dissociate in the separation methods employed.

[4] = molecular target: T3, Dyn-PH (PH domain of dynamin) (Homo sapiens, UniProt Q05193); assay: Gel filtration of 3H-labeled IP3 with PH domain; assay type: binding; details: PH domain 10 μM, IP3 20 μM
T3 construct: The PH domains from PLC-δ1, and dynamin, as well as the N-terminal PH domain of pleckstrin; made in house; host or cells: Escherichia coli (T7 system)
T3 sequence (Q05193 519-625 limits assumed): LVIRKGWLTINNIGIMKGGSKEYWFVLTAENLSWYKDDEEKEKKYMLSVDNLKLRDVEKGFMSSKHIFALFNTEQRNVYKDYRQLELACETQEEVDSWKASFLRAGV
Experimental: (§1) For gel-filtration studies, PH domain at 10 μM was mixed with 20 μM IP3, containing 100 nCi of the appropriate ^3H-labeled isomer. A 200 μl sample was applied to a BioRad BiogelP6 desalting column, and 40 fractions of 300 μl were collected. A Bio-Rad protein assay was performed on […] of each fraction to determine the elution position of the protein, and scintillation counting of the remainder was used to detect the elution positions of IP3. Experiments were performed in either 50 mM MOPS, 100 mM NaCl, pH 6.8, or 100 mM NH4OAc, pH 6.8.

[5] = molecular target: T4, PlecN-PH (N-terminal PH domain of pleckstrin) (Homo sapiens, UniProt P08567); assay: Gel filtration of 3H-labeled IP3 with PH domain; assay type: binding; details: PH domain 10 μM, IP3 20 μM
T4 construct: residues 1-110 of pleckstrin (PlecN-PH); initiator methionine (N); made in house; host or cells: Escherichia coli (pET11a, T7 system)
T4 sequence (P08567 1-110): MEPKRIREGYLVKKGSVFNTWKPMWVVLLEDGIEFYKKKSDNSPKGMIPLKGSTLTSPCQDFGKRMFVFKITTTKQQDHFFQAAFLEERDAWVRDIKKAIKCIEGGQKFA
Experimental: as §1

[6] = molecular target: T1, PLCδ-PH; assay: Gel filtration of 3H-labeled IP3 with PH domain; assay type: binding; details: PH domain 10 μM, IP3 20 μM
Experimental: as §1

[7] = ratio of molar excess for 50% competition to that of unlabeled I(145)P3, multiplied by 0.2 μM, read-out: KD (μM) by competition assay
[8] = from concentrations required to reduce 3H-I(145)P3 binding by 50%, read-out: KD from competition assay

Compound: O=P(O)(O)O[C@H]1[C@H](O)[C@@H](OP(=O)(O)O)[C@H](OP(=O)(O)O)[C@@H](OP(=O)(O)O)[C@H]1O [D-I(1345)P4]
Kd [1, 7]: > 2 µM

Compound: O=P(O)(O)O[C@H]1[C@H](OP(=O)(O)O)[C@@H](OP(=O)(O)O)[C@@H](O)[C@@H](O)[C@@H]1OP(=O)(O)O [D-I(3456)P4]
Kd [1, 7]: 3.2 µM

Compound: O=P(O)(O)O[C@H]1[C@H](O)[C@@H](O)[C@H](OP(=O)(O)O)[C@@H](O)[C@H]1O [D-I(14)P2]
Kd [1, 8]: > 50 µM
Kd [1, 7]: > 12 µM

Compound: O=P(O)(O)O[C@@H]1C(O)[C@@H](OP(=O)(O)O)[C@@H](O)C(O)[C@H]1O (stereo partly drawn) [D-I(24)P2]
Kd [1, 7]: > 12 µM

Compound: CCCCCCCCCCCCCC(=O)OC[C@H](COP(=O)([O-])OCC[N+](C)(C)C)OC(=O)CCCCCCCCCCCCC [DMPC, dimyristoylphosphatidylcholine]
competition for I(145)P3 binding by lipid vesicles [1]: did not compete
competition for I(145)P3 binding by lipid vesicles ([1]; listed as PC): no detectable competition

Compound: O=P(O)(O)O[C@@H]1[C@@H](O)[C@H](OP(=O)(O)O)[C@@H](OP(=O)(O)O)[C@H](O)[C@@H]1O [L-I(145)P3]
Kd [1, 8]: 13 µM
Kd [1, 7]: 8.1 µM

Compound: O=P(O)(OCC(O)CO)OC1C(O)C(O)C(O)C(O)C1O (centres unmarked) [GPI, 1-(a-glycerophosphoryl)-inositol]
Kd [1, 7]: > 60 µM

Further lines, with some results ahead:

Kd [1, 7]: > 60 µM
Compound: O=P(O)(O)OC1[C@@H](O)[C@H](O)C(O)[C@H](O)[C@H]1O (some centres unmarked) [I-2-P, inositol-2-phosphate]

Kd ([1]; PIP2: 5% in DMPC vesicles, assuming 50% available, read-out: KD from competition assay): 0.4 µM
Kd [1, 7]: 0.45 µM
binding weaker than I(145)P3 ([1]; relative to I(145)P3 binding to PLCδ-PH): two-fold
Kd ([2]; ITC, read-out: KD (dissociation constant)): 0.4 µM
binding affinity in words ([2]; PIP2 in vesicles): submicromolar affinities
ΔG ([2]; individual titrations, 25° C): -8.86 kcal/M and -8.72 kcal/M
Stoichiometry n ([2]; individual titrations, 25° C, pH 6.8, quoted for IPn as the ligand, PIP2 in vesicles assuming 50% available): 1.08 ± 0.01 and 1.14 ± 0.01
Kd ([2]; individual titrations, 25° C, pH 6.8, read-out: KD): 0.32 µM and 0.4 µM
Stoichiometry n ([2]; mean of the titrations): 1.11 ± 0.04
ΔG ([2]; mean of the titrations): -8.79 ± 0.10 kcal/M
ΔH ([2]; mean of the titrations): -13.4 ± 0.2 kcal/M
ΔS ([2]; mean of the titrations): −15.4 ± 0.3 cal · M^−1 · K^−1
Kd ([2]; mean of the titrations, read-out: KD): 0.36 ± 0.06 µM
Compound: O=P(O)(O)O[C@@H]1[C@@H](O)[C@@H](O)[C@@H](OP(=O)(O)OC[C@H](O)CO)[C@H](O)[C@H]1OP(=O)(O)O [GPIP2, 1-(a-glycerophosphoryl)-D-inositol-4,5-bisphosphate]
ΔH ([2]; individual titrations, 25° C): -13.5 ± 0.1 kcal/M and -13.2 ± 0.1 kcal/M
ΔS ([2]; individual titrations, 25° C): −15.6 cal · M^−1 · K^−1 and −15.2 cal · M^−1 · K^−1

binding to vesicles [3]: no binding
Compound: phosphatidylinositol [PI]
competition for I(145)P3 binding by lipid vesicles [1]: no detectable competition; also recorded: did not compete

binding to vesicles [3]: no binding
Compound: phosphatidylserine [PS]
competition for I(145)P3 binding by lipid vesicles [1]: no detectable competition; also recorded: did not compete

binding detected by gel filtration [6]: no binding
Kd [1, 7]: > 12 µM
Compound: O=P(O)(O)OC1C(O)C(O)C(OP(=O)(O)O)C(OP(=O)(O)O)C1O (single isomer, unassigned) [D-I(134)P3]
binding detected by gel filtration [4]: neither Dyn-PH nor PlecN-PH was seen to bind; also recorded: Neither PlecN-PH nor Dyn-PH showed evidence of binding
binding detected by gel filtration [5]: neither Dyn-PH nor PlecN-PH was seen to bind; also recorded: Neither PlecN-PH nor Dyn-PH showed evidence of binding

Kd [1, 8]: > 50 µM
Kd [1, 7]: > 12 µM
Compound: O=P(O)(O)O[C@@H]1[C@@H](O)[C@H](O)[C@H](O)[C@H](O)[C@H]1OP(=O)(O)O [D-I(45)P2]

Kd [1, 7]: 12 µM
Compound: O=P(O)(O)O[C@H]1[C@H](OP(=O)(O)O)[C@@H](OP(=O)(O)O)[C@H](O)[C@@H](O)[C@H]1OP(=O)(O)O [D-I(1256)P4]

Kd [1, 7]: > 60 µM
Compound: O=S(=O)(O)OC1C(OS(=O)(=O)O)C(OS(=O)(=O)O)C(OS(=O)(=O)O)C(OS(=O)(=O)O)C1OS(=O)(=O)O (centres unmarked) [I(SO4)6, inositol hexasulfate]

Kd [1, 8]: 7.5 µM
Kd [1, 7]: 4.7 µM
Compound: O=P(O)(O)OC1C(O)C(O)C(OP(=O)(O)O)C(OP(=O)(O)O)C1O (single isomer, unassigned) [D-I(245)P3]

Kd [1, 7]: 5.3 µM
Compound: O=P(O)(O)O[C@@H]1[C@@H](O)[C@H](OP(=O)(O)O)[C@@H](OP(=O)(O)O)[C@@H](O)[C@H]1OP(=O)(O)O [D-I(1346)P4]
